Where “and” joins values, the source holds several entries; their conditions need not be identical. Equal values may be shown once.
Columns and labels:
AML cells [1] = assay: SCNP of basal and growth-factor modulated signaling in AML patient sample with kinase inhibitors (Example 17, Arm #1); format: cell-based, human; conditions: patient #1910-017
Text: This study used peripheral blood or bone marrow samples (n=9), which had been previously ficoll separated and cryopreserved. Patient characteristics are shown Table 8. One cryovial per patient was used. Samples were thawed and centrifuged over ficoll to remove dead cells and debris.
Samples were split to perform the following: Arm #1 assessed basal and modulated signaling in the JAK/STAT, PI3K/mTor, and MEK/ERK pathways in the presence and absence of specific kinase inhibitors. Kinase inhibitors were added 1 hr before the addition of the signaling stimulus. Signaling was induced by individual addition of stem cell factor, Flt3 ligand, G-CSF, IL-3, or thrombopoietin (TPO) for a short period of time (5-15 min). Cells were then fixed, permeabilized, and stained with a cocktail of cell surface and phospho-specific antibodies to measure signaling in multiple cell types. Signaling data is calculated in each cell type using a fold-change metric comparing each condition to its basal state: example: (stimulated^+/−inhibitor)/(unstimulated). Also, cells with an apoptotic phenotype were excluded from the signaling analysis by gating.

AML cells [2] = assay: Cytotoxic and cytostatic impact of drugs on cultured AML patient cells (Example 17, Arm #2); format: cell-based, human; conditions: patient #1910-017, 48 hours
Protocol: This study used peripheral blood or bone marrow samples (n=9), which had been previously ficoll separated and cryopreserved. […] One cryovial per patient was used. Samples were thawed and centrifuged over ficoll to remove dead cells and debris. […] After 2 days the cells were then distributed into wells containing various drugs, wherein the cells were cultured for 48 hours. The cultures were fixed, permeabilized, and stained with a cocktail of antibodies to measure complete cell death, apoptosis, S/G2 phase, M-Phase, and DNA damage. These readouts were also obstained from samples cultured separately with individual growth factors (no drugs) for 4 days.

PBMCs [3] = format: cell-based, human; conditions: PBMC, 24 hours
monocytes in PBMC = assay: Flow cytometry of intracellular cytokines in SAg-modulated PBMC with inhibitors (Example 12); format: cell-based, human
[4] = tested on: peripheral blood mononuclear cells (PBMC); assay: SCNP assay of SAg-modulated PBMC signaling over time, with or without cytokine pathway inhibitors (Examples 10, 11, 13); format: cell-based, human
PBMCs [5] = assay: SCNP intracellular signaling readouts in PBMCs treated 24 hours with modulator (SAg or LPS) plus inhibitor (Example 9, FIGS. 18-21); format: cell-based, human
PBMCs [6] = tested on: PBMCs
PBMCs [7] = assay: SCNP signaling in LPS-treated PBMCs with inhibitors (Example 14, FIGS. 22, 23); conditions: LPS plus inhibitor
PBMCs [8] = assay: SCNP of IFN-α signaling in PBMCs from healthy donors (Examples 5 and 15); format: cell-based, human
Protocol: (§1) Methods: IFN-α-mediated signaling responses were measured by SCNP in PBMC samples from 12 healthy donors. PBMCs were processed for flow cytometry by fixation and permeabilization followed by incubation with fluorochrome-conjugated antibodies that recognize extracellular lineage markers and intracellular signaling molecules. The levels of several phospho-proteins (p-Stat1, p-Stat3, p-Stat4, p-Stat5, p-Stat6, and p-p38) were measured in multiple cell populations (CD14+ monocytes, CD20+ B cells, CD4+ CD3+ T cells, and CD4− CD3+ T cells) at 15 minutes, 1, 2 and 4 hours post IFN-α exposure as described in Example 6.
as §1, with “IFN-α-mediated” for “Methods: IFN-α-mediated”

PBMCs [9] = assay: SCNP of immunomodulator signaling nodes in PBMC subpopulations of 60 healthy donors (Example 16); format: cell-based, human; conditions: 15 min
Protocol: Cryopreserved PBMC samples were thawed at 37° C. and resuspended in RPMI 1% FBS before staining with amine aqua viability dye (Invitrogen, Carlsbad, Calif.). Cells were resuspended in RPMI 10% FBS, aliquoted to 100,000 cells per well of 96-well plates, and rested for 2 h at 37° C. prior to 15 min 37° C. incubation with the following modulators: 1000 IU/ml IFNα (PBL, Piscataqay, N.J.); 250 ng/ml IFNγ, 50 ng/ml IL4, 50 ng/ml IL10, α-IgD 5 m/ml (BD, San Jose, Calif.); 50 ng/ml IL2, 50 ng/ml IL6, 50 ng/ml IL27, CD40L 0.5 μg/ml (R&D, Minneapolis, Minn.); R848 5 μg/ml (Invivogen, San Diego, Calif.); LPS 1 μg/ml, PMA 40 nM (Sigma Aldrich, St. Louis, Mo.). After exposure to modulators, cells were fixed with paraformaldehyde and permeabilized with 100% ice-cold methanol as previously described (5). […]
Flow cytometry data was acquired using FACS DIVA software (BD, San Jose, Calif.) on two LSRII Flow Cytometers (BD, San Jose, Calif.). All flow cytometry data were analyzed with WinList (Verity House Software, Topsham, Me.). […]
Two different metrics are utilized in this study to measure the levels of intracellular signaling proteins in either the unmodulated state or in response to modulation. […] The Equivalent Number of Reference Fluorophores (ERFs), fluorescence measurements calibrated by rainbow calibration particles on each 96-well plate, serve as a basis for all metric calculations (6, 7).

whole blood = assay: SCNP of cytokine-induced JAK/STAT signaling in whole blood of healthy donors (Example 4); format: cell-based, human
Protocol: Method: Whole blood from 11 healthy donors (20-65 yrs, 7 males, 4 females, 8 Caucasians, 2 Hispanics, 1 East Asian) was stimulated at 37° C. in 96-well plates with a low, medium, and high dose of GM-CSF, IFN-α, IL-27 and IL-6, each added separately, as described in Example 5. For each dose, a stimulation time course was run with 6 time points between 3 and 45 minutes. […] The SCNP assay was performed using a fluorophore-labeled antibody cocktail to simultaneously measure signaling in six distinct cell populations, including: neutrophils, CD20+ B cells, CD3+CD4+T cells, CD3+CD4− T cells (CD8 enriched), CD3-CD20-lymphocytes (NK cell enriched), and CD14+ monocytes. The median fluorescent intensity of phospho (p)-STAT1(Y701), p-STAT3(Y705), and p-STAT5(Y694) were measured in each defined cell population for each experimental condition.

Molecule: Cn1cnc2c(F)c(Nc3ccc(Br)cc3Cl)c(C(=O)NOCCO)cc21 [AZD-6244]
- SCF induced pAKT (AML cells [1]): no inhibition
- SCF induced pS6 (AML cells [1]): partial inhibition
- SCF-pERK (AML cells [1]): complete inhibition

Molecule: Nc1ccn([C@@H]2O[C@H](CO)[C@@H](O)[C@@H]2O)c(=O)n1 [AraC]
- drug induced apoptosis of myeloid cells (AML cells [2]): resisted apoptosis

Molecule: Cn1c(=O)n(-c2ccc(C(C)(C)C#N)cc2)c2c3cc(-c4cnc5ccccc5c4)ccc3ncc21 [BEZ235]
- SCF induced pAKT (AML cells [1]): complete inhibition
- SCF induced pS6 (AML cells [1]): partial inhibition

Molecule: C[C@@H]1CCN(C(=O)CC#N)C[C@@H]1N(C)c1ncnc2[nH]ccc12 [CP-690550]
- IL-3 signaling (AML cells [1]): complete inhibition
- TPO signaling (AML cells [1]): partial inhibition
- high basal level of p-STAT5 signaling (AML cells [1]): inhibited

Molecule: CS(=O)(=O)N1CCN(Cc2cc3nc(-c4cccc5[nH]ncc45)nc(N4CCOCC4)c3s2)CC1 [GDC-0941]
- SCF induced pAKT (AML cells [1]): partial inhibition
- SCF induced pS6 (AML cells [1]): partial inhibition

Molecule: C[C@@H]1CCN(C(=O)CC#N)C[C@@H]1N(C)c1ncnc2[nH]ccc12 [Tofacitinib]
- B cell IL-6 production (PBMCs [3]; SAg plus inhibitor): blocked
- T cell cytokine production (IL-2 and TNF by CD4+ cells) (PBMCs [3]; SAg plus inhibitor): blocked
- IL-6 production by monocytes (PBMCs [3]; inhibitor added): induced
- TNFα production (PBMCs [3]; monocytes, LPS plus inhibitor): blocked
- IL-6 in monocytes at other time points (monocytes in PBMC): induced IL-6 at the 2 hour and 24 hour time points
- frequency of monocytes expressing TNFα (monocytes in PBMC): 46%
- monocytes expressing IL-6 (IL-6+) (monocytes in PBMC): 44%
- PI3K pathway activation in lymphocytes [4]: blocked
- STAT induction evoked by SAg modulation [4]: completely abrogated
- overall inhibition of SAg-evoked signaling [4]: broad and potent inhibition of the JAK/STAT pathway and down-stream signaling
- p-STAT5 and PI3K pathway signaling in CD4+ T cells [4]: this inhibition pattern extended to CD4+ T cells
- p-STAT5 and PI3K pathway signaling in CD4− T cells [4]: inhibited
- p-STAT levels in CD4− T cells [4]: restored p-STAT levels to the unmodulated condition
- phosphorylation of STAT1 and STAT5 [4]: weakly reduced
- STAT signaling / STAT phosphorylation (PBMCs [5]; LPS modulation, FIG. 21): inhibited
- all measured signaling (PBMCs [5]; SAg modulation, FIG. 19): inhibited all signaling except for monocyte p-STAT6
- lymphocyte signaling (PBMCs [5]; SAg modulation, FIG. 20): inhibited
- inhibition (PBMCs [6]): 102% and 79%
- p-STAT1 and p-STAT3 induction in lymphocytes (PBMCs [7]; 2 hours): completed abrogated
- p-STAT3 in lymphocytes (PBMCs [7]; later time points): partially inhibited

Molecule: CC(C)C[C@H](NC(=O)[C@H](Cc1ccccc1)NC(=O)c1cnccn1)B(O)O [bortezomib]
- cell death and cytostasis (AML cells [2]): induced considerable levels of cell death and cytostasis

Molecule: IFN-α
- peak response for activation of p-Stat4, p-Stat6, and p-p38 (PBMCs [8]; majority of cell types tested): 1 h
- peak response for activation of p-Stat1, p-Stat3, and p-Stat5 (PBMCs [8]; most of the cell types): 15 min
- pStat activation across immune cell subpopulations (PBMCs [9]; 1000 IU/ml): at least one pStat protein was activated in response to IFNα in all of the immune cell subpopulations
- time of peak activation of all 3 STAT proteins (whole blood; all cell subsets): 10 min

Molecule: IL-6: cytokine used as modulator
- time of peak p-STAT1 and p-STAT5 (whole blood; CD4+ T cells and monocytes): 10 to 15 min
- time of peak p-STAT3 levels (whole blood; CD4+ T cells and monocytes): 3 min

B1: IL-27: cytokine used as modulator (protein, UniProt Q8NEV9 29-243; Q14213 21-229, looked up)
Interleukin-27 subunit alpha: FPRPPGRPQLSLQELRREFTVSLHLARKLLSEVRGQAHRFAESHLPGVNLYLLPLGEQLPDVSLTFQAWRRLSDPERLCFISTTLQPFHALLGGLGTQGRWTNMERMQLWAMRLDLRDLQRHLRFQVLAAGFNLPEEEEEEEEEEEEERKGLLPGALGSALQGPAQVSWPQLLSTYRLLHSLELVLSRAVRELLLLSKAGHSVWPLGFPTLSPQP
Interleukin-27 subunit beta: RKGPPAALTLPRVQCRASRYPIAVDCSWTLPPAPNSTSPVSFIATYRLGMAARGHSWPCLQQTPTSTSCTITDVQLFSMAPYVLNVTAVHPWGSSSSFVPFITEHIIKPDPPEGVRLSPLAERQLQVQWEPPGSWPFPEIFSLKYWIRYKRQGAARFHRVGPIEATSFILRAVRPRARYYVQVAAQDLTDYGELSDWSLPATATMSLGK
- time of peak activation of p-STAT1 and p-STAT3 (whole blood; T cell subsets, B cells, and monocytes): 30 min

B2: IFNγ: cytokine used as modulator (protein, UniProt P01579 24-161, looked up)
Interferon gamma: QDPYVKEAENLKKYFNAGHSDVADNGTLFLGILKNWKEESDRKIMQSQIVSFYFKLFKNFKDDQSIQKSVETIKEDMNVKFFNSNKKKRDDFEKLTNYSVTDLNVQRKAIHELIQVMAELSPAAKTGKRKRSQMLFRG
- pStat1 level by cell type (PBMCs [9]; 250 ng/ml): produced the highest level of pStat1 in monocytes, lower levels in B cells, and a much weaker pStat1 response in T cells
